Test results taken from ChEMBL document CHEMBL1201862, “PubChem BioAssay data set” (2004).
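Where inhibition never reached the appropriate level, the endpoint shown equals the highest concentration tested. Otherwise, values were interpolated linearly from a five-concentration, 48-hour dose response in 96-well plates. GI50: concentration for 50% inhibition of growth.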 Active and inactive are the calls of the source. Rule as the data show it: active = GI50 up to about 1.1 µM and inactive = higher.

Tests used:
Experiment in all cases: NCI-60 cell line screen, 48 h
OVCAR-5 = tested on: OVCAR-5
SW-620 = tested on: SW-620
SK-MEL-2 = tested on: SK-MEL-2
HCT-116 = tested on: HCT-116
SNB-75 = tested on: SNB-75
EKVX = tested on: EKVX
UACC-257 = tested on: UACC-257
SK-OV-3 = tested on: SK-OV-3
SF-295 = tested on: SF-295
SK-MEL-28 = tested on: SK-MEL-28
HOP-62 = tested on: HOP-62
HCC 2998 = tested on: HCC 2998
SR = tested on: SR
SF-539 = tested on: SF-539
A549 = tested on: A549
UO-31 = tested on: UO-31
TK-10 = tested on: TK-10
HOP-92 = tested on: HOP-92
NCI/ADR-RES = tested on: NCI/ADR-RES
786-0 = tested on: 786-0

Row | SMILES | GI50 (OVCAR-5) | GI50 (SW-620) | GI50 (SK-MEL-2) | GI50 (HCT-116) | GI50 (SNB-75) | GI50 (EKVX) | GI50 (UACC-257) | GI50 (SK-OV-3) | GI50 (SF-295) | GI50 (SK-MEL-28) | GI50 (HOP-62) | GI50 (HCC 2998) | GI50 (SR) | GI50 (SF-539) | GI50 (A549) | GI50 (UO-31) | GI50 (TK-10) | GI50 (HOP-92) | GI50 (NCI/ADR-RES) | GI50 (786-0)
1 | CCC1NC(/N=N/c2ccc([N+](=O)[O-])cc2)(P(=O)(OC(C)C)OC(C)C)OC1=O (centres undefined) | > 100 µM (inactive) | > 100 µM (inactive) | > 100 µM (inactive) | > 100 µM (inactive) | 23.6 µM (inactive) | > 100 µM (inactive) | > 100 µM (inactive) | > 100 µM (inactive) | > 100 µM (inactive) | > 100 µM (inactive) | > 100 µM (inactive) | > 100 µM (inactive) | > 100 µM (inactive) | > 100 µM (inactive) | > 100 µM (inactive) | > 100 µM (inactive) | > 100 µM (inactive) | > 100 µM (inactive) | – | –
2 | CC(C)(C)c1ccc2c(c1)OP1(Oc3cccc4cccnc34)(O2)Oc2ccc(C(C)(C)C)cc2O1 | 4.17 µM (inactive) | 2.25 µM (inactive) | 7.85 µM (inactive) | 3.13 µM (inactive) | 15.7 µM (inactive) | 3.08 µM (inactive) | 2.54 µM (inactive) | 48.2 µM (inactive) | 4.19 µM (inactive) | 15.7 µM (inactive) | 22.8 µM (inactive) | 9.89 µM (inactive) | – | 10.4 µM (inactive) | 5.58 µM (inactive) | 4.42 µM (inactive) | – | 4.61 µM (inactive) | 2.96 µM (inactive) | –
3 | CC(C)(C)OC(=O)/C=C/C(=O)O/C=C/[N+](=O)[O-] | > 100 µM (inactive) | > 100 µM (inactive) | – | > 100 µM (inactive) | > 100 µM (inactive) | > 100 µM (inactive) | > 100 µM (inactive) | > 100 µM (inactive) | > 100 µM (inactive) | – | > 100 µM (inactive) | > 100 µM (inactive) | 18.2 µM (inactive) | > 100 µM (inactive) | > 100 µM (inactive) | > 100 µM (inactive) | > 100 µM (inactive) | > 100 µM (inactive) | – | > 100 µM (inactive)
4 | CCOC(=O)CC1(c2cccc3ccccc23)OC(=O)c2ccccc21 (centres undefined) | > 100 µM (inactive) | 79.4 µM (inactive) | 32.1 µM (inactive) | – | 14 µM (inactive) | 63.2 µM (inactive) | 56.4 µM (inactive) | > 100 µM (inactive) | 34.4 µM (inactive) | 39.9 µM (inactive) | – | 62.5 µM (inactive) | – | – | 41 µM (inactive) | 23.9 µM (inactive) | 80 µM (inactive) | – | – | –
5 | C=C1C(O)C2(O)OCC34C(CC5C(C)=CC(=O)C(O)C5(C)C23)OC(=O)C(OC(=O)C/C=C/CCCCCCCC)C14 (centres undefined) | 0.112 µM (active) | 0.0217 µM (active) | 0.0241 µM (active) | 0.02 µM (active) | 0.0228 µM (active) | 0.02 µM (active) | – | 0.056 µM (active) | – | 0.02 µM (active) | 0.0233 µM (active) | 0.02 µM (active) | – | 0.0208 µM (active) | 0.0249 µM (active) | 0.0452 µM (active) | – | 0.02 µM (active) | 0.162 µM (active) | –
6 | O=S(O)CCCCCSSc1ccccc1 | > 100 µM (inactive) | – | 18.2 µM (inactive) | 24.3 µM (inactive) | 37.3 µM (inactive) | > 100 µM (inactive) | 39 µM (inactive) | > 100 µM (inactive) | – | 61.1 µM (inactive) | > 100 µM (inactive) | > 100 µM (inactive) | 8.02 µM (inactive) | 22.8 µM (inactive) | – | 31.6 µM (inactive) | 84.9 µM (inactive) | – | – | –
